The source of these data is US7785807B2, “Voltage-gated, pH-sensitive anion channel and its novel splice variant involved in taste sensation” (Monell Chemical Senses Center, priority 2004, dated 2010).

Entries after “also recorded” stand apart in the source; their conditions may differ.

Assay type in all cases: cell-based
For test [1], the target named is T1, human ClC-4 (Homo sapiens, UniProt P51793).
T1 construct: one clone was isolated, which contained the entire coding region; expressed in transfected cells; host or cells: Xenopus laevis oocytes injected with in vitro transcribed cRNA
T1 sequence (P51793 1-760): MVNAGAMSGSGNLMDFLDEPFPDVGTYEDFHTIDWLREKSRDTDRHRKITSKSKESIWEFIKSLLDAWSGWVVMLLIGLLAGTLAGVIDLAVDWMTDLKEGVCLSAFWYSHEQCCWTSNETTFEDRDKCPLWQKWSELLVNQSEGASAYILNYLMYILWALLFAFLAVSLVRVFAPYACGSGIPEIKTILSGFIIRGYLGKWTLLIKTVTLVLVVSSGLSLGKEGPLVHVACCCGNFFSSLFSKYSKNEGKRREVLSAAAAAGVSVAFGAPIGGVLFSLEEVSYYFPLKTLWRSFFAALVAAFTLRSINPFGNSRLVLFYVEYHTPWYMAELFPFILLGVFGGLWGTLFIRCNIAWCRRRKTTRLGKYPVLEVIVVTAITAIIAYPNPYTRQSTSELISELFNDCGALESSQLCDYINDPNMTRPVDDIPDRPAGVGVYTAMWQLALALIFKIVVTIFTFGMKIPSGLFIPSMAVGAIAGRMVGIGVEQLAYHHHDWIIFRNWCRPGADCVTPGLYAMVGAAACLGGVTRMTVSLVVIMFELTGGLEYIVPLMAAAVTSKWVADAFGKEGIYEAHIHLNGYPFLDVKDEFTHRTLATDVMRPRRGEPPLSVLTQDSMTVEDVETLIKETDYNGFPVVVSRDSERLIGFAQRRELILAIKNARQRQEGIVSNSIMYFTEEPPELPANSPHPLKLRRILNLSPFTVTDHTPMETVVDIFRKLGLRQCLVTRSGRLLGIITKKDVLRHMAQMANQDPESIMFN
The experiment in a line: Two-electrode voltage-clamp recording of human ClC-4 expressed in Xenopus oocytes, chloride channel inhibitor effect. As for the experimental part: (§1) ClC-4 and ClC-4A cDNAs were subcloned into the expression vector pCR Blunt II TOPO. Capped sense cRNA was synthesized from the linearized expression constructs by T7 RNA polymerase with nMessage mMachine in vitro transcription kit and tailed with polyA tailing kit (Ambion). The synthesized cRNA products were phenol extracted, ethyl alcohol precipitated, and then dissolved in nuclease-free water at about 0.5 ng/nl for injection. Dumont stage V or VI oocytes were obtained from adult female laboratory bred Xenopus laevis, and their follicles were removed by collagenase digestion. […] Membrane currents were recorded using the two-electrode voltage-clamp technique in ND96 solution (96 mM NaCl, 2 mM KCl, 1.8 mM CaCl2, 1 mM MgCl2, 5 mM Na-HEPES, pH 7.4). […]
(§2) Recording and current-passing micropipettes with tip resistance <5 MΩ when filled with 3 M KCl were pulled from glass capillaries (A-M Systems Inc., Carlsburg, Wash., USA) using a horizontal puller (Suffer P-80/PC). Currents were recorded with a GeneClamp 500 amplifier, digitized with a Digidata 1200 A/D-D/A system, and stored on a computer running pCLAMP 6 software (all from Axon Instruments, Foster City, Calif., USA). […]

The target of test [2] is T2, mouse ClC-4 (Mus musculus, UniProt Q61418).
T2 construct: a pair of PCR primers was designed to encompass the entire coding region; expressed in transfected cells; host or cells: Xenopus laevis oocytes injected with in vitro transcribed cRNA
T2 sequence (Q61418 1-747): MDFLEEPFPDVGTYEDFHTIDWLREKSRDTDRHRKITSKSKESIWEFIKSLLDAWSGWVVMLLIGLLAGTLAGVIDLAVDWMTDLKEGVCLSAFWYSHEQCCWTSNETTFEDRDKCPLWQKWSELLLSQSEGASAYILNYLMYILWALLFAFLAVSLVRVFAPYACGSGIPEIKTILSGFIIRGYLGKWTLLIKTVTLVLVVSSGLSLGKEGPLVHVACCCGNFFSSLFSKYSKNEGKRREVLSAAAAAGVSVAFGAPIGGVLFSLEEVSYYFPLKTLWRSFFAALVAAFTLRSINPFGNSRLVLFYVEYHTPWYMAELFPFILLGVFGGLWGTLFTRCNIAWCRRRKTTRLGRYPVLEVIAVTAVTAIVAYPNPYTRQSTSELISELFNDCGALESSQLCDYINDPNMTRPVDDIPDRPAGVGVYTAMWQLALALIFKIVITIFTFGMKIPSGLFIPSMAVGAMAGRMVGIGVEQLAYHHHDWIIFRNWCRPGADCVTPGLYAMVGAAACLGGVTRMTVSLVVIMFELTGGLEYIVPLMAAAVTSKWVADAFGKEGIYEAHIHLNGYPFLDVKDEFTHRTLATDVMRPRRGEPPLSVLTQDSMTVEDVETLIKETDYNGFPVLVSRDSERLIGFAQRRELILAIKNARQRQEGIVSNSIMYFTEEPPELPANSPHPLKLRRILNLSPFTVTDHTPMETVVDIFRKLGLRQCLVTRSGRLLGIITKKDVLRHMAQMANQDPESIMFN
The test is described as follows: Two-electrode voltage-clamp recording of mouse ClC-4 expressed in Xenopus oocytes, chloride channel inhibitor effect. As for the experimental part:
as §1, §2
On the technique in general: Two-electrode voltage clamp is typically applied to oocytes expressing channels or transporters.

For test [3], the target named is T3, ClC-4A (Mus musculus, UniProt Q61418).
T3 construct: expressed in transfected cells; host or cells: Xenopus laevis oocytes injected with in vitro transcribed cRNA
T3 sequence (Q61418 61-747): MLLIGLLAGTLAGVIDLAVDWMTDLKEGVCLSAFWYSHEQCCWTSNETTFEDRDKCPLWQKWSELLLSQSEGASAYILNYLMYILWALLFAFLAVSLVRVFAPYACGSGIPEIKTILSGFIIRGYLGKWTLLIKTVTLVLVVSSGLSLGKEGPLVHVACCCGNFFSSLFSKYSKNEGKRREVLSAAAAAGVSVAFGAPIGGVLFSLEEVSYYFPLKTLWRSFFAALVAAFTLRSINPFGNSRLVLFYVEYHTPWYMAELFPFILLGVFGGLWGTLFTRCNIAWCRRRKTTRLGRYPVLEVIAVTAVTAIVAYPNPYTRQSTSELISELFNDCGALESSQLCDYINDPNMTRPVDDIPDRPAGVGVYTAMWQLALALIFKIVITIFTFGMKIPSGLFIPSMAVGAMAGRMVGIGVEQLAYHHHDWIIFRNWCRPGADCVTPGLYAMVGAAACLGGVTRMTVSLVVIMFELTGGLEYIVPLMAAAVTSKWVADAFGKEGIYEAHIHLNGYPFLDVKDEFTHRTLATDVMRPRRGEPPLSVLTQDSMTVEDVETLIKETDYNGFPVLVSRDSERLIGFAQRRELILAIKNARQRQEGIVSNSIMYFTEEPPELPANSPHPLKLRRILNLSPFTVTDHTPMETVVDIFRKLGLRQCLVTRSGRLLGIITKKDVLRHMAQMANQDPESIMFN
The experiment in a line: Two-electrode voltage-clamp recording of ClC-4A expressed in Xenopus oocytes, chloride channel inhibitor effect. As for the experimental part:
as §1, §2

Setting [4] is: 0.3 mM NFA, pH 7.4, Xenopus oocytes.
Setting [5] is: 0.1 mM NPPB, optimal pH, Xenopus oocytes.

Regarding `O=C(O)c1cccnc1Nc1cccc(C(F)(F)F)c1` [NFA, niflumic acid], the “inhibition on ion channel conductance” value is “only a slight inhibitory effect” in test [1] (setting [4]); “only a slight inhibitory effect” in test [2] (setting [4]); “significantly inhibited” in test [3] (0.3 mM NFA, pH 5.5, Xenopus oocytes).
As to `O=C(O)c1cc([N+](=O)[O-])ccc1NCCCc1ccccc1` [NPPB, 5-nitro-2-(3-phenylpropylamino)-benzoic acid], the “inhibition on ion channel conductance” value is on record as “no apparent effect” in test [1] (setting [5]), “no apparent effect” in test [2] (setting [5]) and “slightly inhibit; also recorded: inhibited” in test [3] (setting [5]).
